According to ChEMBL document CHEMBL3091317, “Inhibition of cholinesterase and monoamine oxidase-B activity by Tacrine-Homoisoflavonoid hybrids” (Bioorg Med Chem, 2013):
Active and inactive are the calls of the source. The calls are words filed in the database; no cut-off is given here.

What was measured:
[1] = molecular target: Acetylcholinesterase (Electrophorus electricus, UniProt O42275)
Description: Inhibition of electric eel AChE using acetylthiocholine chloride as substrate preincubated for 15 mins followed by substrate addition measured every 1 min by Ellman method

[2] = molecular target: Cholinesterase (Equus caballus, UniProt P81908)
Description: Inhibition of horse serum BuChE using butylthiocholine chloride as substrate preincubated for 15 mins followed by substrate addition measured every 1 min by Ellman method

[3] = molecular target: T1, Amine oxidase [flavin-containing] A (Homo sapiens, UniProt P21397); details: 20 min, read-out: INH
T1 sequence (P21397 whole entry): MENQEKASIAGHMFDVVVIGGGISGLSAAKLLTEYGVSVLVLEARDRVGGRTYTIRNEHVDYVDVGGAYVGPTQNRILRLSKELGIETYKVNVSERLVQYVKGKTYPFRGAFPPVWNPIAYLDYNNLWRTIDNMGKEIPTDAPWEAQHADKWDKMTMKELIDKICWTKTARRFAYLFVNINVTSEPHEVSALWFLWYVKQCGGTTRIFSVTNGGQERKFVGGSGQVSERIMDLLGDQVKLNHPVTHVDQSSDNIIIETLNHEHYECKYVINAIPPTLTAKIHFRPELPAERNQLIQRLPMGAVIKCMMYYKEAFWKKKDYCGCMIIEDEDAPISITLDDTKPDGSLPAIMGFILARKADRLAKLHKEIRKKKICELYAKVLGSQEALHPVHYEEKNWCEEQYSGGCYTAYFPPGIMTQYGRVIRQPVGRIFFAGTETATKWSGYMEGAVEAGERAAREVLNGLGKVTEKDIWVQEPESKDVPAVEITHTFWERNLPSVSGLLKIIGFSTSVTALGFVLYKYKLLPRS
Description: Inhibition of human recombinant MAO-A using p-tyramine as substrate assessed as formation of H2O2 at 100 uM preincubated for 15 mins under dark condition followed by substrate addition measured after 20 mins by fluorescence assay relative to control

[4] = molecular target: T2, Amine oxidase [flavin-containing] B (Homo sapiens, UniProt P27338)
T2 sequence (P27338 whole entry): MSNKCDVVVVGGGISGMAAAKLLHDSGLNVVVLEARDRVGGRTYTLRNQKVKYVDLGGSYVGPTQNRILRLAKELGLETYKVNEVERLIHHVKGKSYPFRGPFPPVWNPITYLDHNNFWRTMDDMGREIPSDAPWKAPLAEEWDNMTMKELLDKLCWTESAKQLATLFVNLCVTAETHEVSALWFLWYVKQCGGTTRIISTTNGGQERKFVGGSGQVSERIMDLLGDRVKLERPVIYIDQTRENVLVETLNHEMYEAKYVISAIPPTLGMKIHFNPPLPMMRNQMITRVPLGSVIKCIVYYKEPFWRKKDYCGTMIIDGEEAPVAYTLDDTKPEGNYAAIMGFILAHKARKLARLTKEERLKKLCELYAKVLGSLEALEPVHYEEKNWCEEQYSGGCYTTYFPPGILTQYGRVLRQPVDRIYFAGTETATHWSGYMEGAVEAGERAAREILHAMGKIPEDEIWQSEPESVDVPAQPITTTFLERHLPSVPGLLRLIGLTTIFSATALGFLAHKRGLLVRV
Description: Inhibition of human recombinant MAO-B using benzylamine as substrate preincubated for 15 mins under dark condition followed by substrate addition measured after 20 mins by fluorescence assay

[5] = in vitro; details: PAMPA
Description: Permeability of the compound at 100 mg/mL after 10 hrs by PAMPA

[6] = molecular target: T2, Amine oxidase [flavin-containing] B; assay: Inhibition of human recombinant MAO-B using benzylamine as substrate at 20 uM preincubated for 15 mins under dark condition followed by substrate addition measured after 20 mins by fluorescence assay
[7] = molecular target: T3, Acetylcholinesterase (Homo sapiens, UniProt P22303); assay: Inhibition of human erythrocytic AChE using acetylthiocholine chloride as substrate preincubated for 15 mins followed by substrate addition measured every 1 min by Ellman method
T3 sequence (P22303 whole entry): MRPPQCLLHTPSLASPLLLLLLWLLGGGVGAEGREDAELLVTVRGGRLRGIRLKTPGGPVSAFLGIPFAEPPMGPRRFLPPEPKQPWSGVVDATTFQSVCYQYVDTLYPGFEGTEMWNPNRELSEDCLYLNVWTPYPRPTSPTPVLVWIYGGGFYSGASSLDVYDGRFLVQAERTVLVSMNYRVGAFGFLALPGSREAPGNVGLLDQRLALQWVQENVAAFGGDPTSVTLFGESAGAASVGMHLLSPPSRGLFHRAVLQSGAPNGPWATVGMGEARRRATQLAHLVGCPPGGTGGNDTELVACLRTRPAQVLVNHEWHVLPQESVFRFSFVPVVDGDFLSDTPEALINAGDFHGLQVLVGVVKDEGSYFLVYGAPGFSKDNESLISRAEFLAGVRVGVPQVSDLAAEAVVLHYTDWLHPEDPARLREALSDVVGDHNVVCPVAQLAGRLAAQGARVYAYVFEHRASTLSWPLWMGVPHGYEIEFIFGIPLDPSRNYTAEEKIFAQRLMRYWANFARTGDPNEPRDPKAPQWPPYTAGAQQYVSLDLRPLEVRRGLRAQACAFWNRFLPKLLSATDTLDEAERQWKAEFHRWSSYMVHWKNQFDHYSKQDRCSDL

[8] = molecular target: T2, Amine oxidase [flavin-containing] B; assay: Irreversible inhibition of human recombinant MAO-B at 1 uM preincubated for 15 mins followed by repeated washing by centrifugation-ultrafiltration method relative to control
[9] = molecular target: T2, Amine oxidase [flavin-containing] B; assay: Inhibition of human recombinant MAO-B at 400 nM incubated for 15 mins prior to washing relative to control; details: 0.25 h
[10] = molecular target: Acetylcholinesterase (Electrophorus electricus) (UniProt O42275); assay: Mixed-type inhibition of electric eel AChE using acetylthiocholine chloride as substrate assessed as increase in Km at 60 to 100 nM preincubated for 15 mins followed by substrate addition by Lineweaver-Burk plot analysis
Acetylcholinesterase (Electrophorus electricus), sequence (O42275 24-633 limits assumed): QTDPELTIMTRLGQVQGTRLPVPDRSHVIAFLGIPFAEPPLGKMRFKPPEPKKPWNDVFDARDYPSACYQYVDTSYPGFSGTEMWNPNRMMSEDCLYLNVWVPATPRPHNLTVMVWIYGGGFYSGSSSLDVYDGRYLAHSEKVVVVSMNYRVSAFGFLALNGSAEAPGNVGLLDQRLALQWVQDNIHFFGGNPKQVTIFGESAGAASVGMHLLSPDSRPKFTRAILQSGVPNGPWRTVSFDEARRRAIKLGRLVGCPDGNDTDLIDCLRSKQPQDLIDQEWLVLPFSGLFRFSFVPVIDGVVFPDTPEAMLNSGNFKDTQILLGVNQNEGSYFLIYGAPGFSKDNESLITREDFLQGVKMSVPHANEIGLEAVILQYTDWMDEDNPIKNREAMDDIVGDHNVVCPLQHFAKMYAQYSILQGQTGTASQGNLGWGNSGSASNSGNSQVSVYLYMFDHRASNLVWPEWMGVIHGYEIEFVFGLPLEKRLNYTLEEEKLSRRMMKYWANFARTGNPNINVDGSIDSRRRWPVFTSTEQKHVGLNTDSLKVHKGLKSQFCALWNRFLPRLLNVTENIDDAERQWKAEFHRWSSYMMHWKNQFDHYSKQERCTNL

[11] = molecular target: T2, Amine oxidase [flavin-containing] B; assay: Inhibition of human recombinant MAO-B at 1 uM incubated for 15 mins prior to washing relative to control; details: 0.25 h
[12] = molecular target: Acetylcholinesterase (Electrophorus electricus) (UniProt O42275); assay: Mixed-type inhibition of electric eel AChE using acetylthiocholine chloride as substrate assessed as decrease in Vmax at 60 to 100 nM preincubated for 15 mins followed by substrate addition by Lineweaver-Burk plot analysis
[13] = molecular target: T2, Amine oxidase [flavin-containing] B; assay: Irreversible inhibition of human recombinant MAO-B at 400 nM preincubated for 15 mins followed by repeated washing by centrifugation-ultrafiltration method relative to control
[14] = molecular target: T3, Acetylcholinesterase; assay: Inhibition of AChE (unknown origin)-induced beta-amyloid aggregation

Acetylcholinesterase (Electrophorus electricus, UniProt O42275), sequence (O42275 whole entry): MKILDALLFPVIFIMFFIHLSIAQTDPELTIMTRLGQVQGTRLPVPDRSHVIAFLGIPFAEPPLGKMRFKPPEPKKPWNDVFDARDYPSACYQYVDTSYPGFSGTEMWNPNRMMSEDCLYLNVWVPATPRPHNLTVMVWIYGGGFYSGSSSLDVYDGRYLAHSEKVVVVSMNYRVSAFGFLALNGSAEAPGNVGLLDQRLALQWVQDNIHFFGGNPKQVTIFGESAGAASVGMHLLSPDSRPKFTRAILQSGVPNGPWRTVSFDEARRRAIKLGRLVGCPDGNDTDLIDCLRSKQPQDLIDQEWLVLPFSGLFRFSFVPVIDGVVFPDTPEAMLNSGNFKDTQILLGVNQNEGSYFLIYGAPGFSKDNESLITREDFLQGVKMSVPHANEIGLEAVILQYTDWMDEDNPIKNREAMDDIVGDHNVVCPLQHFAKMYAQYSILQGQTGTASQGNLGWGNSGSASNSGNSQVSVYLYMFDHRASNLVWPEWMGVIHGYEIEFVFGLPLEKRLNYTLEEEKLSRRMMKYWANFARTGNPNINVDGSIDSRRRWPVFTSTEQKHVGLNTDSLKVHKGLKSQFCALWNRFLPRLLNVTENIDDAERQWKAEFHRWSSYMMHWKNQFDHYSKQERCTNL
Cholinesterase, sequence (P81908 whole entry): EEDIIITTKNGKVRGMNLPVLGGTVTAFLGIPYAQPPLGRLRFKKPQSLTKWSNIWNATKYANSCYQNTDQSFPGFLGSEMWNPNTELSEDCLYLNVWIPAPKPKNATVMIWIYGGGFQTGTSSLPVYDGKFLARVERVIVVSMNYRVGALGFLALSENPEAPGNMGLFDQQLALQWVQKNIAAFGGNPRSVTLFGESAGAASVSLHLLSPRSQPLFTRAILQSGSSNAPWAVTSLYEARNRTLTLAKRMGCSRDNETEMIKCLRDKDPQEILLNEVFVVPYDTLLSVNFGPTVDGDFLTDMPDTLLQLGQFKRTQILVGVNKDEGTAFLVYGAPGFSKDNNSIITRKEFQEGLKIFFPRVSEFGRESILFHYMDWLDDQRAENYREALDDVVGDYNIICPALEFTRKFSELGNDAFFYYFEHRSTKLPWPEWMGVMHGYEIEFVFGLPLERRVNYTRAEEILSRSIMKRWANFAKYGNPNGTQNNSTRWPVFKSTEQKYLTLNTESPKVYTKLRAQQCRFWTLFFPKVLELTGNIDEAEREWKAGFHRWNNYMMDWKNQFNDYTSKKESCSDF

| SMILES | IC50 [1] [nM] | IC50 [2] [nM] | inhibition at 100 µM [3] [%] | IC50 [4] [nM] | Papp at 10 h, 100 mg/mL [5] [×10⁻⁶ cm/s] | inhibition (INH) [6] | IC50 [7] [nM] | inhibition at 1 µM [8] [%] | inhibition at 0.4 µM [9] [%] | inhibition [10] | inhibition at 1 µM [11] [%] | inhibition [12] | inhibition at 0.4 µM [13] [%] | inhibition [14] |
| --- | --- | --- | --- | --- | --- | --- | --- | --- | --- | --- | --- | --- | --- | --- |
| O=C1/C(=C/c2ccc(Cl)cc2)COc2cc(OCCCCCCNc3c4c(nc5ccccc35)CCCC4)ccc21 | 101 | 44.5 | 23.3 | 15400 | 1.1 | – | – | – | – | – | – | – | – | – |
| COc1cc(/C=C2\COc3cc(OCCCCCCNc4c5c(nc6ccccc46)CCCC5)ccc3C2=O)cc(OC)c1OC | 106 | 109 | 25.7 | – | – | Not Active | – | – | – | – | – | – | – | – |
| COc1ccc(/C=C2\COc3cc(OCCCCCCNc4c5c(nc6cc(Cl)ccc46)CCCC5)ccc3C2=O)cc1 | 123 | 25.9 | 15.3 | 1360 | – | – | – | – | – | – | – | – | – | – |
| COc1ccc(CC2COc3cc(OCCCCCCNc4c5c(nc6ccccc46)CCCC5)ccc3C2=O)cc1 (centres undefined) | 91.7 | 27.4 | 78.2 | 1110 | 2.8 | – | – | – | – | – | – | – | – | – |
| COc1ccc(/C=C2\COc3cc(OCCCCCCCCCCNc4c5c(nc6ccccc46)CCCC5)ccc3C2=O)cc1 | 888 | 6.2 | 69.6 | 3430 | – | – | – | – | – | – | – | – | – | – |
| COc1ccc(/C=C2\COc3cc(OCCCCCNc4c5c(nc6ccccc46)CCCC5)ccc3C2=O)cc1 | 78.3 | 23.6 | 58.4 | 1160 | 6.6 | – | 98 | – | – | – | – | – | – | – |
| COc1ccc(/C=C2\COc3cc(OCCCCCCNc4c5c(nc6ccccc46)CCCC5)ccc3C2=O)cc1OC | 117 | 34.7 | 51.6 | 19700 | – | – | – | – | – | – | – | – | – | – |
| O=C1/C(=C/c2ccc(F)cc2)COc2cc(OCCCCCCNc3c4c(nc5ccccc35)CCCC4)ccc21 | 70.1 | 44.2 | 58.4 | 1090 | 4 | – | 105 | – | – | – | – | – | – | – |
| COc1ccccc1/C=C1\COc2cc(OCCCCCCNc3c4c(nc5ccccc35)CCCC4)ccc2C1=O | 151 | 29.9 | 70.3 | 1790 | – | – | – | – | – | – | – | – | – | – |
| CCN(CC)c1ccc(/C=C2\COc3cc(OCCCCCCNc4c5c(nc6ccccc46)CCCC5)ccc3C2=O)cc1 | 693 | 235 | 22.4 | – | – | Not Active | – | – | – | – | – | – | – | – |
| COc1cccc(/C=C2\COc3cc(OCCCCCCNc4c5c(nc6ccccc46)CCCC5)ccc3C2=O)c1 | 142 | 47.1 | 54.1 | 2200 | – | – | – | – | – | – | – | – | – | – |
| COc1ccc(/C=C2\COc3cc(OCCCCCCNc4c5c(nc6ccccc46)CCCC5)ccc3C2=O)cc1 | 67.9 | 33 | 48.3 | 401 | 6.8 | – | 157 | 67.5 | 47.1 | Active | 78.4 | Active | 33.5 | Active |
| Cc1ccc(/C=C2\COc3cc(OCCCCCCNc4c5c(nc6ccccc46)CCCC5)ccc3C2=O)cc1 | 129 | 54.6 | 60.5 | 1240 | – | – | – | – | – | – | – | – | – | – |
| COc1ccc(/C=C2\COc3cc(O)ccc3C2=O)cc1 [BONDUCELLIN] | > 100000 | > 100000 | 24.1 | 1060 | – | – | – | – | – | – | – | – | – | – |
| COc1ccc(/C=C2\COc3cc(OCCCCCCCCNc4c5c(nc6ccccc46)CCCC5)ccc3C2=O)cc1 | 68.5 | 93.1 | 64.8 | 518 | 4.9 | – | 122 | – | – | – | – | – | – | – |
| COc1ccc(/C=C2\COc3cc(OCCCCCCCCCNc4c5c(nc6ccccc46)CCCC5)ccc3C2=O)cc1 | 169 | 30.9 | 60.2 | 437 | – | – | – | – | – | – | – | – | – | – |
| CN(C)c1ccc(/C=C2\COc3cc(OCCCCCCNc4c5c(nc6ccccc46)CCCC5)ccc3C2=O)cc1 | 115 | 65.7 | 31.5 | 1030 | – | – | – | – | – | – | – | – | – | – |
| COc1ccc(/C=C2\COc3cc(OCCCCCCCCNc4c5c(nc6cc(Cl)ccc46)CCCC5)ccc3C2=O)cc1 | 188 | 612 | 33.1 | 1560 | – | – | – | – | – | – | – | – | – | – |
